Data published in patent publication US20030037344A1, “METHOD FOR EVALUATING THE ABILITY OF A COMPOUND TO INHIBIT NEUROTOXICITY” (priority 1997, published 2003).

System: PC12 cells stably transfected with RAGE and transiently transfected with mutant presenilin-2 (N141 mutant)
Test: TUNEL apoptosis assay in transfected PC12 cells exposed to Aβ
Assay type: cell-based
Conditions: Aβ 0.3 and 1 μM, 24 hrs; cells co-transfected to express mutant presenilin-2 and RAGE
Protocol: Induction of apoptosis. For apoptosis studies, PC12 cultures, either mock-transfected (control), stably transfected with the RAGE-bearing construct or stably transfected with the RAGE-bearing construct and transiently transfected with the mutant presenilin-2 bearing construct, and were then exposed to Aβ (0.3 or 1 μM) for 24 hrs. At the end of this time, apoptosis was determined using the TUNEL assay by counting positively staining nuclei per twenty high-power fields. Under these conditions, mutant presenilin-2 by itself has little effect on apoptosis, as shown previously (FIG. 3).
Generation of Stable Transfected Cells. PC12 cells, grown as described and transfected with pcDNA3-RAGE (the latter comprised of the human RAGE cDNA) (Yan, et al., 1996) using lipofectamine (12 μg/ml) according to the manufacturer's instructions (Gibco-BRL). Cells were maintained in the presence of G418. Transient transfection was performed with a vector including mutant presenilin-2 (N141 mutant) (Wolozin et al., 1996), using lipofectamine, as described (Wolozin et al., 1996). Immunoblotting and immunostaining of PC12 cells for RAGE was performed as described previously (Yan, et al., 1996).
Apoptosis assay. The terminal deoxynucleotidyl transferase-mediated dUTP nick end labeling (TUNEL) assay was performed as described using a kit from Travigen, a peroxide-based TACS-TdTkit (Woolozin, et al., 1996). […]

Aβ: Aβ (comprised of residues 1-42), synthesized, HPLC purified, purchased from a commercial supplier
apoptosis (TUNEL, positively staining nuclei per twenty high-power fields): dramatic increase in apoptosis
